Experimental data taken from US8143374B2, “Polypeptide derivatives of parathyroid hormone (PTH)” (The General Hospital Corporation, priority 2006, dated 2012).
Where no end group is shown, it is not given here.

Columns and labels:
ROS 17/2.8 cells = molecular target: T1, ROS 17/2.8 cells (Rattus norvegicus, UniProt P25961); conditions: position-20 substitutions in PTH(1-31)NH2; cited from earlier work
T1 construct: ROS 17/2.8 cells are rat osteosarcoma cells and express the endogenous PTHR; host or cells: ROS 17/2.8 cells
T1 sequence (P25961 27-591): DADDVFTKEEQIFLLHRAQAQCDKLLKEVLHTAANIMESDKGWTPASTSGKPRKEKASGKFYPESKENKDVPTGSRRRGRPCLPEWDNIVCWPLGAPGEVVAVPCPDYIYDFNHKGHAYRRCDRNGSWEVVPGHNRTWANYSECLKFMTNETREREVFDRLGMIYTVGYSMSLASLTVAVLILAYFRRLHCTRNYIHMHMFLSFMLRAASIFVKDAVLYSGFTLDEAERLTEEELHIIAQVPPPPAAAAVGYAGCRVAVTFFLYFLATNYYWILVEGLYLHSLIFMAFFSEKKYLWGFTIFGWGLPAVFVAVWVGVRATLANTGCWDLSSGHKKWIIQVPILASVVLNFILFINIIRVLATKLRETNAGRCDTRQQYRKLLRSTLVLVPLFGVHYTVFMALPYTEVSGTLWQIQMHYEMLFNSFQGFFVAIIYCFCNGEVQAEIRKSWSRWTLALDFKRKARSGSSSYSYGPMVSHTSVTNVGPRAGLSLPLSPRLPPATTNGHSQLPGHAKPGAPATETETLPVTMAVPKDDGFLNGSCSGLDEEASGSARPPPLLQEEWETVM

[1] = molecular target: T2, endogenous PTHR in ROS 17/2.8 cells (Rattus norvegicus, UniProt P25961); assay: Competition binding in intact ROS 17/2.8 cells with 125I-PTH(1-34) tracer; conditions: 125I-[Nle8,21,Tyr34]rPTH(1-34)NH2 tracer
T2 construct: ROS 17/2.8 cells are rat osteosarcoma cells and express the endogenous PTHR; endogenous in cells; host or cells: ROS 17/2.8 rat osteosarcoma cells
T2 sequence (P25961 27-591): T1 sequence (P25961 27-591)
Procedure: Cell Culture—Cells were cultured at 37° C. in a humidified atmosphere containing 5% CO2 in Dulbecco's modified Eagle's medium (DMEM), supplemented with 10% fetal bovine serum (HyClone, Logan Utah), 100 units/ml penicillin G, and 100 ug/ml streptomycin penicillin G/streptomycin (Invitrogen Corp. Carlsbad, Calif.). For binding and cAMP studies performed with the intact PTHR, the HKRK-B7 and ROS 17/2.8 cell lines were used. HKRK-B7 cells are derived from the porcine kidney cell line LLC-PK1 and express, via stable DNA transfection, the wild-type human PTHR at an approximate surface density of 950,000 PTH-binding sites per cell. […]
Receptor binding—Binding to the wild-type human PTHR in intact HKRK-B7 cells and ROS 17/2.8 cells was assessed using ^125I-PTH(1-34) as a tracer radioligand, as described (Shimizu, M., (2001) Endocrinology 142:3068-3074). […] The binding mixture was then removed by aspiration, the cells were rinsed three times with binding buffer, lysed in 1 M NaOH, and the entire lysate was counted for gamma-irradiation in a gamma counter. Binding to PTHR-delNt in COS-7 cell membranes was assessed in 96-well, vacuum filtration plates (Multiscreen-Durapore HV, […] membranes, Millipore Corp., Millford, Mass.) using ^125I-[Aib^1,3,M]PTH(1-15)NH2 as a tracer radioligand, as described (Dean, T., (2006) Mol Endocrinol 20:931-942). […]

## SVSEIQLMHNLGKHLNSMEKVEWLRKKLQDV-NH2 [Arg^20→Lys]
ROS 17/2.8 cells
  reduction of cAMP-stimulating potency: abolished activity altogether

## SVSEIQLMHNLGKHLNSMEEVEWLRKKLQDV [Arg^20→Glu]
[1]
  IC50: 5.8 µM
